# System: normal human lung fibroblasts
# Experiment: Ribosomal profiling: translational efficiency in TGFβ-treated fibroblasts
# Assay type: cell-based
# Protocol: Ribosomal profiling allows for measurement of changes in transcription and translation on a genome-wide basis accompanying TGFβ-dependent transformation of fibroblasts to myofibroblasts. Ribosomal profiles of the TGFβ-treated fibroblasts from Example 1 (about 6×10^6 cells/10 cm plate) were prepared and analyzed for changes in translational efficiencies with respect to potential disease-associated cellular changes accompanying this TGFβ-induced transformation.
# Briefly, cells were washed with cold PBS supplemented with cycloheximide and lysed with 1× mammalian cell lysis buffer for 10 minutes on ice. Lysates were clarified by centrifugation for 10 minutes at 14,000 rpm and supernatants were collected. Cell lysates were processed to generate ribosomal protected fragments and total mRNA according to the instructions included with the ARTseq Ribosome Profiling Kit (Illumina, San Diego, Calif.). Sequencing of total RNA (RNA) and of ribosome-protected fragments of RNA (RPF) was carried out using RNA-Seq methodology according to the manufacturer's instructions (Illumina). To analyze the ribosomal profiles, RNA-Seq reads were processed with tools from the FASTX-Toolkit (fastq_quality_trimmer, fastx_clipper and fastx_trimmer). Unprocessed and processed reads were evaluated for a variety of quality measures using FastQC, and processed reads were mapped to the human genome using TopHat (see, e.g., Trapnell et al., Bioinformatics 25:1105, 2009). Gene-by-gene assessment of the number of fragments strictly and uniquely mapping to the coding region of each gene was conducted using HTSeq-count, a component of the HTSeq package. […] Genes with low counts in either RPF or RNA were excluded from differential analyses. Pathway and network analyses of differential data were conducted using Ingenuity Pathway Analysis (IPA).
substance,measurement,setting,value
TGFβ,change in translational profile of PPARG caused by TGFβ,"ENSG00000132170, Control vs. TGFβ",A (A = <−2.5)
same,Log2 TE KDM6B,"ENSG00000132510, 5 replicates",1.603
same,change in translational profile of KDM6B caused by TGFβ,"ENSG00000132510, Control vs. TGFβ",E (E = <1.5 to 2.5)
same,Log2 TE RARRES3,"ENSG00000133321, 5 replicates",−1.995
same,change in translational profile of RARRES3 caused by TGFβ,"ENSG00000133321, Control vs. TGFβ",B (B = <−1.5 to −2.5)
same,Log2 TE TMTC1,"ENSG00000133687, 5 replicates",−1.907
same,Log2 TE RPS15A,"ENSG00000134419, 5 replicates",2.195
same,Log2 TE SOX5,"ENSG00000134532, 5 replicates",−1.667
same,change in translational profile of BIVM caused by TGFβ,"ENSG00000134897, Control vs. TGFβ",B (B = <−1.5 to −2.5)
same,Log2 TE ATP5G2,"ENSG00000135390, 5 replicates",1.381
same,change in translational profile of ATP5G2 caused by TGFβ,"ENSG00000135390, Control vs. TGFβ",E (E = <1.5 to 2.5)
same,Log2 TE KRT7,"ENSG00000135480, 5 replicates",2
same,change in translational profile of KRT7 caused by TGFβ,"ENSG00000135480, Control vs. TGFβ",E (E = <1.5 to 2.5)
same,Log2 TE HNRNPA1,"ENSG00000135486, 5 replicates",1.086
same,change in translational profile of HNRNPA1 caused by TGFβ,"ENSG00000135486, Control vs. TGFβ",D (D = <1.0 to 1.5)
same,Log2 TE PCNXL2,"ENSG00000135749, 5 replicates",−1.261
same,Log2 TE PLXNC1,"ENSG00000136040, 5 replicates",−1.0996
same,Log2 TE IL6,"ENSG00000136244, 5 replicates",1.369
same,change in translational profile of IL6 caused by TGFβ,"ENSG00000136244, Control vs. TGFβ",E (E = <1.5 to 2.5)
same,Log2 TE RPL35,"ENSG00000136942, 5 replicates",1.28
same,change in translational profile of RPL35 caused by TGFβ,"ENSG00000136942, Control vs. TGFβ",E (E = <1.5 to 2.5)
same,change in translational profile of NOV caused by TGFβ,"ENSG00000136999, Control vs. TGFβ",C (C = <−1.0 to −1.5)
same,Log2 TE IL33,"ENSG00000137033, 5 replicates",−2.488
same,Log2 TE RPS6,"ENSG00000137154, 5 replicates",1.598
same,Log2 TE IER3,"ENSG00000137331, 5 replicates",1.702
same,change in translational profile of IER3 caused by TGFβ,"ENSG00000137331, Control vs. TGFβ",E (E = <1.5 to 2.5)
same,Log2 TE DDX60,"ENSG00000137628, 5 replicates",−1.211
same,change in translational profile of DDX60 caused by TGFβ,"ENSG00000137628, Control vs. TGFβ",C (C = <−1.0 to −1.5)
same,Log2 TE RPLP1,"ENSG00000137818, 5 replicates",1.461
same,change in translational profile of RPLP1 caused by TGFβ,"ENSG00000137818, Control vs. TGFβ",E (E = <1.5 to 2.5)
same,Log2 TE PAQR5,"ENSG00000137819, 5 replicates",−1.445
same,change in translational profile of PAQR5 caused by TGFβ,"ENSG00000137819, Control vs. TGFβ",B (B = <−1.5 to −2.5)
same,Log2 TE STAMBPL1,"ENSG00000138134, 5 replicates",−1.139
same,Log2 TE KIF20B,"ENSG00000138182, 5 replicates",−1.281
same,Log2 TE RPS24,"ENSG00000138326, 5 replicates",1.444
same,Log2 TE TET1,"ENSG00000138336, 5 replicates",1.853
same,Log2 TE AOX1,"ENSG00000138356, 5 replicates",−1.143
same,change in translational profile of AOX1 caused by TGFβ,"ENSG00000138356, Control vs. TGFβ",B (B = <−1.5 to −2.5)
same,Log2 TE NAB1,"ENSG00000138386, 5 replicates",−1.01
same,Log2 TE SLC40A1,"ENSG00000138449, 5 replicates",1.114
same,Log2 TE FGF5,"ENSG00000138675, 5 replicates",−1.163
same,change in translational profile of FGF5 caused by TGFβ,"ENSG00000138675, Control vs. TGFβ",B (B = <−1.5 to −2.5)
same,Log2 TE PDE5A,"ENSG00000138735, 5 replicates",−1.594
same,change in translational profile of PDE5A caused by TGFβ,"ENSG00000138735, Control vs. TGFβ",B (B = <−1.5 to −2.5)
same,Log2 TE FGD4,"ENSG00000139132, 5 replicates",−1.142
same,Log2 TE SLC38A4,"ENSG00000139209, 5 replicates",−1.142
same,Log2 TE GAS2L3,"ENSG00000139354, 5 replicates",−2.342
same,change in translational profile of GAS2L3 caused by TGFβ,"ENSG00000139354, Control vs. TGFβ",A (A = <−2.5)
same,Log2 TE TDG,"ENSG00000139372, 5 replicates",1.025
same,Log2 TE DIAPH3,"ENSG00000139734, 5 replicates",1.659
same,change in translational profile of DIAPH3 caused by TGFβ,"ENSG00000139734, Control vs. TGFβ",E (E = <1.5 to 2.5)
same,Log2 TE RPS2,"ENSG00000140988, 5 replicates",1.607
same,change in translational profile of MYO19 caused by TGFβ,"ENSG00000141140, Control vs. TGFβ",D (D = <1.0 to 1.5)
same,Log2 TE CACNA1A,"ENSG00000141837, 5 replicates",−1.055
same,Log2 TE RPS11,"ENSG00000142534, 5 replicates",1.314
same,Log2 TE RPL13A,"ENSG00000142541, 5 replicates",1.797
same,change in translational profile of RPL13A caused by TGFβ,"ENSG00000142541, Control vs. TGFβ",E (E = <1.5 to 2.5)
same,Log2 TE RPL11,"ENSG00000142676, 5 replicates",1.396
same,change in translational profile of RPL11 caused by TGFβ,"ENSG00000142676, Control vs. TGFβ",E (E = <1.5 to 2.5)

# From patent US9993494B2, “Compositions and methods for treating fibrotic disease” (eFFECTOR Therapeutics, Inc., priority 2014, dated 2018)
